This is an account of results in ChEMBL document CHEMBL4804281, “STK4 inhibitors for treatment of hematologic malignancies” (2020).

In assay [1] the test system is NCI-H929. In words: Upregulation of PUMA protein level in human NCI-H929 cells at 1 uM measured after 24 hrs by Western blot analysis. It is filed as functional, cell-based. On the technique in general: In western blotting, separated proteins are transferred to a membrane and probed.
Assay [2] relates to NCI-H929. In words: Upregulation of p21 protein level in human NCI-H929 cells at 1 uM measured after 24 hrs by Western blot analysis. It is filed as functional, cell-based.
Assay [3] concerns NCI-H929. In words: Induction of apoptosis in human NCI-H929 cells assessed as induction of PARP cleavage at 1 uM measured after 24 hrs by Western blot analysis. It is filed as functional, cell-based.
Assay [4] concerns NCI-H929. In words: Upregulation of YAP1 protein level in human NCI-H929 cells at 3 to 10 uM measured after 72 hrs by Western blot analysis. As to conditions: dose 3-10 µM. It is filed as functional, cell-based.
The next assay deals with MM1.S. In words: Upregulation of YAP1 protein level in human MM1.S cells at 3 to 10 uM measured after 72 hrs by Western blot analysis. It is filed as functional, cell-based. As to conditions: dose 3-10 µM.
In assay [5] the target is Ribosomal protein S6 kinase alpha-3 (Homo sapiens) (UniProt P51812). The experiment in a line: Inhibition of RSK2 domain 1 in human NCI-H929 cells at 10 uM by mass spectroscopic analysis relative to control. It is filed as cell-based.
For assay [6], the target named is Mitogen-activated protein kinase kinase kinase 21 (Homo sapiens) (UniProt Q5TCX8). The experiment in a line: Inhibition of MLK4 in human NCI-H929 cells at 10 uM by mass spectroscopic analysis relative to control. It is filed as cell-based.
The target in assay [7] is Misshapen-like kinase 1 (Homo sapiens) (UniProt Q8N4C8). The experiment in a line: Inhibition of MINK in human NCI-H929 cells by mass spectroscopic analysis. It is filed as cell-based. As to conditions: concentration not given here.
In assay [8] the target is Calcium/calmodulin-dependent protein kinase type II subunit gamma (Homo sapiens) (UniProt Q13555). In words: Inhibition of CAMK2G in human NCI-H929 cells at 10 uM by mass spectroscopic analysis relative to control. It is filed as cell-based.
Calcium/calmodulin-dependent protein kinase type II subunit gamma (Homo sapiens), sequence (Q13555 whole entry, canonical isoform): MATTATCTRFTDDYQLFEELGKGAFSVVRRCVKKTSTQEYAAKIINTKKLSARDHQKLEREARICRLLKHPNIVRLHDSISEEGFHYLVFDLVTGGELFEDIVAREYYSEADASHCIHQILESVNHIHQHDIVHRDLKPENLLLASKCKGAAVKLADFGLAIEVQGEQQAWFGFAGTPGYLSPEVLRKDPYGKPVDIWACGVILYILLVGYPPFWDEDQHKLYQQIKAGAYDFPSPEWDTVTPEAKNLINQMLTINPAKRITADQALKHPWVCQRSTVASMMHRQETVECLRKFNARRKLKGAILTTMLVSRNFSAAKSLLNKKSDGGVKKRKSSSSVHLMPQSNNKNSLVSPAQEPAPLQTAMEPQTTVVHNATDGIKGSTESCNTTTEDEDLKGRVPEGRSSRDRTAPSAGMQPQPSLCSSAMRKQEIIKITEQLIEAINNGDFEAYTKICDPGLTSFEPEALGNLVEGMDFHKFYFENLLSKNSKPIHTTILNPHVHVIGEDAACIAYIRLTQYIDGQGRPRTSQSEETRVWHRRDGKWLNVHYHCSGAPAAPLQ
Assay [9] deals with Casein kinase I isoform alpha (Homo sapiens) (UniProt P48729). In words: Inhibition of CK1a in human NCI-H929 cells at 10 uM by mass spectroscopic analysis relative to control. It is filed as cell-based.
Casein kinase I isoform alpha (Homo sapiens), sequence (P48729 2-337 limits assumed): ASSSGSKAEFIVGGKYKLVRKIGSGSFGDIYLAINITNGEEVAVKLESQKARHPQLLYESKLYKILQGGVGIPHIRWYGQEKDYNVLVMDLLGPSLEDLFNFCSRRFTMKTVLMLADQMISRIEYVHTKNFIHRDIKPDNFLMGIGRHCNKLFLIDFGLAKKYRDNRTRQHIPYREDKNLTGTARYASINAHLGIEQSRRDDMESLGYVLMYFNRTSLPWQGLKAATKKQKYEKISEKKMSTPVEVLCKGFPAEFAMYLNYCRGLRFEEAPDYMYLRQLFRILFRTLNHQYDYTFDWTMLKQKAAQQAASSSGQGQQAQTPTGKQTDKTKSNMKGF
Assay [10] has as its target Casein kinase I isoform gamma-3 (Homo sapiens) (UniProt Q9Y6M4). In words: Inhibition of CK1g3 in human NCI-H929 cells at 10 uM by mass spectroscopic analysis relative to control. It is filed as cell-based.
In assay [11] the target is eIF-2-alpha kinase GCN2 (Homo sapiens) (UniProt Q9P2K8). In words: Inhibition of GCN2 domain 2 in human NCI-H929 cells at 10 uM by mass spectroscopic analysis relative to control. It is filed as cell-based.
eIF-2-alpha kinase GCN2 (Homo sapiens), sequence (Q9P2K8 whole entry, the tested form may be a part): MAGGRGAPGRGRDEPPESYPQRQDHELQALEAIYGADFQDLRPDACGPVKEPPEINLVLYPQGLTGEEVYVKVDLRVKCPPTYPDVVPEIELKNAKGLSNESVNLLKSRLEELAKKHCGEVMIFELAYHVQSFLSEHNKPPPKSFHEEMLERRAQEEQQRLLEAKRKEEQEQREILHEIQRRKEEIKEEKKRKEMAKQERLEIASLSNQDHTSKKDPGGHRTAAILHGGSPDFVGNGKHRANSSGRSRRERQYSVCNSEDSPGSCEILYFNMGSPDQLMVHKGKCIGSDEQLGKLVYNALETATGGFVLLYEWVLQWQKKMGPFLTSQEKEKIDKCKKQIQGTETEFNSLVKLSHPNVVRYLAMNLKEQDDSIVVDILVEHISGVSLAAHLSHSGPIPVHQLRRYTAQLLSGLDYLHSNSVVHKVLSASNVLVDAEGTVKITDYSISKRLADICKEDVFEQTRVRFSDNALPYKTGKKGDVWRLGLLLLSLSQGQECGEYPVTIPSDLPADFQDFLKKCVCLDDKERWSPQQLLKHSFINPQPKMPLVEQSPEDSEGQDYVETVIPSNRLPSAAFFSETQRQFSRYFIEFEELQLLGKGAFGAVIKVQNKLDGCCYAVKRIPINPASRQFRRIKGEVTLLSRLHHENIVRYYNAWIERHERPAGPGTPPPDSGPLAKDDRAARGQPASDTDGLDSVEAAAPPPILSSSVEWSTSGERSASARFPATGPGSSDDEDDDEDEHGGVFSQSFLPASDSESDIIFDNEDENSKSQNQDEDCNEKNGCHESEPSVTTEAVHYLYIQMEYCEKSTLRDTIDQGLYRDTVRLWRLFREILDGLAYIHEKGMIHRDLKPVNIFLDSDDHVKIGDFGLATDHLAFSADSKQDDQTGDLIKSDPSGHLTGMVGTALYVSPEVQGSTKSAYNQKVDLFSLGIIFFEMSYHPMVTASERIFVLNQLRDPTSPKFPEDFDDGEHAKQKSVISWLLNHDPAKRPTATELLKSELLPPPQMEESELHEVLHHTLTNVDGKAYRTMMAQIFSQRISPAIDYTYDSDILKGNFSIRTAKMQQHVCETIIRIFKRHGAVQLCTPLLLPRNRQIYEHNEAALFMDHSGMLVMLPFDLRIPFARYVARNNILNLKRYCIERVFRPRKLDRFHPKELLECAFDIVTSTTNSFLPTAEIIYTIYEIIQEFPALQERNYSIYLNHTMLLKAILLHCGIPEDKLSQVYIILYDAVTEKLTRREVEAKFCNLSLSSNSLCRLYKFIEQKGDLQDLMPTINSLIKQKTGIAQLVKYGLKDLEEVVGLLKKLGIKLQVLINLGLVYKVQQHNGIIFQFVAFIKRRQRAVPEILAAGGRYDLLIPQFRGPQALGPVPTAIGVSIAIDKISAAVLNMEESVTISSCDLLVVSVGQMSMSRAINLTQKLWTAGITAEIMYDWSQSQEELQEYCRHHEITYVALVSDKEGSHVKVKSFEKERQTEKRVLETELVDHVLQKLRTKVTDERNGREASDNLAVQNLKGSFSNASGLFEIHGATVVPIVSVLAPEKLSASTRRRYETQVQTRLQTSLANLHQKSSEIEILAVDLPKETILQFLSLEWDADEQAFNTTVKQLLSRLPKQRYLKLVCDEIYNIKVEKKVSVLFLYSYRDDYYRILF
Assay [12] addresses Serine/threonine-protein kinase STK11 (Homo sapiens) (UniProt Q15831). In words: Inhibition of LKB1 in human NCI-H929 cells at 10 uM by mass spectroscopic analysis relative to control. It is filed as cell-based.
Assay [13] addresses Dual specificity mitogen-activated protein kinase kinase 4 (Homo sapiens) (UniProt P45985). In words: Inhibition of MAP2K4 in human NCI-H929 cells at 10 uM by mass spectroscopic analysis relative to control. It is filed as cell-based.
The target in assay [14] is Ribosomal protein S6 kinase alpha-4 (Homo sapiens) (UniProt O75676). The experiment in a line: Inhibition of MSK2 domain 1 in human NCI-H929 cells at 10 uM by mass spectroscopic analysis relative to control. It is filed as cell-based.
In assay [15] the target is T1, Serine/threonine-protein kinase 4 (Homo sapiens) (UniProt Q13043).
T1 sequence (whole entry): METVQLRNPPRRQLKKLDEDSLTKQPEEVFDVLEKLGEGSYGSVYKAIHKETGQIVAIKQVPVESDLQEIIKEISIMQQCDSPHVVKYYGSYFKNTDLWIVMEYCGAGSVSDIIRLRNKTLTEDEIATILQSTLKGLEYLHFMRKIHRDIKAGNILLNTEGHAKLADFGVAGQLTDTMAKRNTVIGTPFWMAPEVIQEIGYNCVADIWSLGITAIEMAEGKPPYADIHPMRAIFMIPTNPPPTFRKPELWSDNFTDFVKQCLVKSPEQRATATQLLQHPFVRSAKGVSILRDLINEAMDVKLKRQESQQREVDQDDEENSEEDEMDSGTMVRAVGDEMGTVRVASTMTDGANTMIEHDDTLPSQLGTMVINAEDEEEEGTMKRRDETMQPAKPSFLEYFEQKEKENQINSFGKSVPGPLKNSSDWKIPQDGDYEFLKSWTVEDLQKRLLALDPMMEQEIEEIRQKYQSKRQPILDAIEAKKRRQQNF
In words: Inhibition of MST1 in human NCI-H929 cells at 10 uM by mass spectroscopic analysis relative to control. It is filed as cell-based.

The target of assay [16] is T2, Serine/threonine-protein kinase 3 (Homo sapiens) (UniProt Q13188).
T2 sequence (whole entry): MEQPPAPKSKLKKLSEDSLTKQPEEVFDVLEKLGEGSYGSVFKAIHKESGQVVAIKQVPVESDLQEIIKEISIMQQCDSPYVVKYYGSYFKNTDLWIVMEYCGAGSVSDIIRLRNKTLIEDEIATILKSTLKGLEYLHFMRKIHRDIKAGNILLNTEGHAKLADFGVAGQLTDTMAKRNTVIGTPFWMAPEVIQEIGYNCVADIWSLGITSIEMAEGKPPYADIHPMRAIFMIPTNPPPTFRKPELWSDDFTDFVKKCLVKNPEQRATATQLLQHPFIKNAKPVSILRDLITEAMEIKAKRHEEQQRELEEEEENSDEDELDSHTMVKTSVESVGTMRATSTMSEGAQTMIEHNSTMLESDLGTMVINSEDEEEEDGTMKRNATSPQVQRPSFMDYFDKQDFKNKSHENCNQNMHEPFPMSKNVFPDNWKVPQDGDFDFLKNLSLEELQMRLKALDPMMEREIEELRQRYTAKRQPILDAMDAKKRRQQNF
In words: Inhibition of MST2 in human NCI-H929 cells at 10 uM by mass spectroscopic analysis relative to control. It is filed as cell-based.

For assay [17], the target named is Phosphatidylinositol 5-phosphate 4-kinase type-2 alpha (Homo sapiens) (UniProt P48426). The experiment in a line: Inhibition of PIP4K2A in human NCI-H929 cells at 10 uM by mass spectroscopic analysis relative to control. It is filed as cell-based.
Assay [18] has as its target Cyclin-G-associated kinase (Homo sapiens) (UniProt O14976). The experiment in a line: Inhibition of GAK in human NCI-H929 cells at 10 uM by mass spectroscopic analysis relative to control. It is filed as cell-based.

Calls of active or inactive are those of the source. The rule behind the calls is not given here. Where only a bound is given, the exact number is not on record here.

For orientation: inhibition means the relative decrease from the control value, in per cent.

Cyclin-G-associated kinase (Homo sapiens), sequence (O14976 whole entry): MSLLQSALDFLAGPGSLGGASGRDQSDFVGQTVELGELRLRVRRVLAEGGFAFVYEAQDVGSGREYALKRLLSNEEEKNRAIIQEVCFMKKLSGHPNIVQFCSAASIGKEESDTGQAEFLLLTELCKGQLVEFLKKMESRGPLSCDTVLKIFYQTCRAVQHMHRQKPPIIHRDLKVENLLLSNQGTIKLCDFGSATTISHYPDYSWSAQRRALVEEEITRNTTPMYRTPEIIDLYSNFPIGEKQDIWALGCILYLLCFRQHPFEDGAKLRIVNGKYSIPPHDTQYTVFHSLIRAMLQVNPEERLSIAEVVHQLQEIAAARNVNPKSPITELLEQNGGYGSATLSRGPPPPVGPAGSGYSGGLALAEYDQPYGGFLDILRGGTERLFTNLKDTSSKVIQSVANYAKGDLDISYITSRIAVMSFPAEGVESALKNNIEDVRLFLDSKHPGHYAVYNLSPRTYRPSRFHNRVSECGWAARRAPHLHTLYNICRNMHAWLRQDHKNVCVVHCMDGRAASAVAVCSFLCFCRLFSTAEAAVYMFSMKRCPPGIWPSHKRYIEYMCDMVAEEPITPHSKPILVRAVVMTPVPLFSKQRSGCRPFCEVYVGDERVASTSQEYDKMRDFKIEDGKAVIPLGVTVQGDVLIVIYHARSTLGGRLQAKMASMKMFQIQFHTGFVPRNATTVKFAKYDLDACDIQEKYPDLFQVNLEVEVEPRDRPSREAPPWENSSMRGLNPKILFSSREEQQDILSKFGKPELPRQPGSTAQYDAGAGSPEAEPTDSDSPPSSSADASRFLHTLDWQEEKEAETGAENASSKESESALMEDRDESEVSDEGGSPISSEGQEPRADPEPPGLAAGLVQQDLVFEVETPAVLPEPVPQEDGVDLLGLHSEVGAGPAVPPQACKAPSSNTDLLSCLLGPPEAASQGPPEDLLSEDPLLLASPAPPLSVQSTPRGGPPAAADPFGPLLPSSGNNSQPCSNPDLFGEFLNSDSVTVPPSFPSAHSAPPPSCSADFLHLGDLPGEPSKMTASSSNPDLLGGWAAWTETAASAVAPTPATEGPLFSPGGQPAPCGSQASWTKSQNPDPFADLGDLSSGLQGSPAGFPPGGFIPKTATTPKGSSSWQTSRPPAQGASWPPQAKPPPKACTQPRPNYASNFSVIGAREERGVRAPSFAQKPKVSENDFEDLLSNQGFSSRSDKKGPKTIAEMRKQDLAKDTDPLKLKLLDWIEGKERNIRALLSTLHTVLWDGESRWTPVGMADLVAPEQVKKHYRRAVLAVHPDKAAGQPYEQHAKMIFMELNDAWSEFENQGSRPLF
Dual specificity mitogen-activated protein kinase kinase 4 (Homo sapiens), sequence (P45985 whole entry, the tested form may be a part): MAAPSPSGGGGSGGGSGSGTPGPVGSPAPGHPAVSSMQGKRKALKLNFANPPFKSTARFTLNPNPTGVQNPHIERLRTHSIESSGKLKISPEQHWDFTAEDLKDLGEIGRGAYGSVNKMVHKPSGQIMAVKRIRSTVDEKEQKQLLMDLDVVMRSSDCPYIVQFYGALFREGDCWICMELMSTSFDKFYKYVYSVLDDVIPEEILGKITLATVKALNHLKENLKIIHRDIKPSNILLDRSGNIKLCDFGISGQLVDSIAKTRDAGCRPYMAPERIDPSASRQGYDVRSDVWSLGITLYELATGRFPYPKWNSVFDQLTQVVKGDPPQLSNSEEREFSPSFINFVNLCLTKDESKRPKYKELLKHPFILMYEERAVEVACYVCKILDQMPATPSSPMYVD
Casein kinase I isoform gamma-3 (Homo sapiens), sequence (Q9Y6M4 whole entry, looked up, the tested form may be a part, canonical isoform): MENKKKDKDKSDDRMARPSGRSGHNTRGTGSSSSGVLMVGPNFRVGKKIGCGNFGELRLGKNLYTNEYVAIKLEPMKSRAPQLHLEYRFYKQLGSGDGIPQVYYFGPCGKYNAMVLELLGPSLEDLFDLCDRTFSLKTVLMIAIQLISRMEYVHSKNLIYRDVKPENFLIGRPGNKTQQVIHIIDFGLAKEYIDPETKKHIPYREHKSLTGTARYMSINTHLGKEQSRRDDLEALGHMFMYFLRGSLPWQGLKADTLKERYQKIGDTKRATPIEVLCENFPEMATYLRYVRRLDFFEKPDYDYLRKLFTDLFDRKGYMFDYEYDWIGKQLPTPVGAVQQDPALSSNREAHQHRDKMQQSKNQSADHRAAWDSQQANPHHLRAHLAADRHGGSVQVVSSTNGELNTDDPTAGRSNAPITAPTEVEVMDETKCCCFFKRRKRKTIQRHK

`Nc1ncc(-c2cccc([N+](=O)[O-])c2F)cc1-c1ccc2c(c1)CCNC2=O`: the outcome in the assay on NCI-H929 [1], in the assay on NCI-H929 [2] and in the assay with NCI-H929 [3] was Active. The result with NCI-H929 [4] and in the assay on MM1.S was inactive.
Turning to `Nc1ncc(-c2ccc(NS(=O)(=O)C3CC3)cc2OC2CCCCC2)cc1-c1ccc2c(c1)CCNC2=O`, the inhibition in [5] and in assay [6] was 50% throughout.
Regarding `COc1cc(NS(=O)(=O)C2CC2)ccc1-c1cnc(N)c(-c2ccc3c(c2)CCNC3=O)c1`, the inhibition in assay [7] was 0%; in assay [8], 75%; in [9] it was 75%; in assay [10] it was 0%; in [11] it was 75%; in [12], greater than 90%. Moreover, the inhibition is 0% in assay [13]; greater than 90% in assay [14]; 0% in assay [15]; 0% in assay [16]; greater than 90% in assay [17]; 50% in assay [18].
